Laboratory results as given in patent publication US6352836B1 (priority 1997, dated 2002).
Where two headings read alike, the source gives them in different places.

Molecular target: PHIS-PDiTPx2235 (Dirofilaria immitis, UniProt O17433)
Assay type: biochemical, D. immitis
Conditions: for Percent protection (Mean ± SD): PHIS-PDiTPx2235 0.75 mg/ml, DTT 10 mM

Chain of PHIS-PDiTPx2235 (O17433 whole entry, looked up): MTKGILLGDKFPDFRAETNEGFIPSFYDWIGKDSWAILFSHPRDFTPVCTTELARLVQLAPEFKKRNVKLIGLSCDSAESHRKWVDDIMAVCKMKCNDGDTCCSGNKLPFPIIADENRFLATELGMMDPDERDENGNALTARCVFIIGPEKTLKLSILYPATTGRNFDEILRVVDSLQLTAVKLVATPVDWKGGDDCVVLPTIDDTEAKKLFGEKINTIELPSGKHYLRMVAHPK

**Q.** What does the source list for `CCN1C(=O)C=CC1=O` [NEM, N-ethylmaleimide]?
**A.** Percent protection (Mean ± SD) (NEM 0.1 mM): 97.3 ± 2.40%; Percent protection (Mean ± SD) (NEM 1.0 mM): 76.7 ± 1.13%; Percent protection (Mean ± SD) (NEM 2.0 mM): 77.9 ± 1.87%; Percent protection (Mean ± SD) (NEM 4.0 mM): 58.4 ± 1.57%; Percent protection (Mean ± SD) (NEM 8.0 mM): 21.1 ± 0.33%; Percent protection (Mean ± SD) (NEM 16.0 mM): 0.0 ± 0.0%; Percent protection (Mean ± SD) (NEM 32.0 mM): 0.0 ± 0.0%; inhibition of H2O2 removal by PHIS-PDiTPx2235 (inhibition concentration dependent (Table 5)): prevented PHIS-PDiTPx2235 from removing H2O2
